Measured values taken from paper PMC11882969 (Nature Communications, 2025).

Target: CB1 (rCB1) (Rattus norvegicus, UniProt P20272)
Assay: Single-point radioligand displacement screen
Assay type: binding
Settings: 10 µM, 1 µM or 300 nM by cell colour (not visible)

Sequence of CB1 (rCB1) (P20272 whole entry): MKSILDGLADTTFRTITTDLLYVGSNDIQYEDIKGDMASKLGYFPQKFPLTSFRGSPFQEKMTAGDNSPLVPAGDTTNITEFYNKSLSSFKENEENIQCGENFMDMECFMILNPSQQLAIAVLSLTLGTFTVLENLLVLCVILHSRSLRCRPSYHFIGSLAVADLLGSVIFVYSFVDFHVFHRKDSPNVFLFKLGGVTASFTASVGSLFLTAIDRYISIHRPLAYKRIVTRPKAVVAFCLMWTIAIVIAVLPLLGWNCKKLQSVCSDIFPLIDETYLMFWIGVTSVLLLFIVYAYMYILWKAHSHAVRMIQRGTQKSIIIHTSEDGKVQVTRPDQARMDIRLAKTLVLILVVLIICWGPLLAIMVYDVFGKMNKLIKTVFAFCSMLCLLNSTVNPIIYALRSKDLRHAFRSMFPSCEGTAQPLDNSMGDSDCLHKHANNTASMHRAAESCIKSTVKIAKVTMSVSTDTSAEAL

Structure (SMILES) | % 1H-CP-55,940 displacement (mean) from single point screen [%]
COC(=O)C(NC(=O)c1cc(-c2cccc(F)c2)c2ccccc2c1)c1cccs1 (centres unmarked) [1486_17] | 8.92
O=C(Nc1cccc2ccsc12)c1ccn(-c2cccc(F)c2)n1 [1486_22] | -3.59
